The values that follow are results of earlier work, collected in patent US12616655B2, “Topical antibiotic containing pharmaceutical composition for bacterial infections and wound healing” (Vishagan Vanangamudi Sulur, priority 2019, dated 2026).

Values after ≈ are worked out from the molar mass of the structure shown. Like-named read-outs stand apart in the source and are kept apart here.

For data set [1] the following is noted: at 22° C.
For data set [2] the following is noted: through intact human skin.

By solubility is commonly meant the concentration that dissolves in the medium under given conditions. In general, pKa refers to the negative logarithm of the acid dissociation constant. Consider `C/C(=C\C(=O)OCCCCCCCCC(=O)O)C[C@@H]1OC[C@H](C[C@@H]2O[C@H]2[C@@H](C)[C@H](C)O)[C@@H](O)[C@H]1O` [Mupirocin], for which the solubility is 500 µg/mL (≈ 999 µM) (in alcohol at 20° C.) and 1000 µg/mL (≈ 2000 µM) (in water at 20° C.). Also, the pKa in data set [1] was 5. Moreover, in data set [2], the Systemic absorption entry is “minimal”. Also, the “inhibition of protein and RNA synthesis” value in the data set with Staphylococcus aureus is on record as “strongly inhibit”.
